Data published in patent EP2955179A1, “CONDENSED HETEROCYCLIC COMPOUND” (Sumitomo Chemical Company Limited, priority 2013, dated 2014).
Like-named read-outs stand apart in the source and are kept apart here.

How the values were obtained:
Type in all cases: in vivo
Nilaparvata lugens [1] = test: Test Example 4: drench at foot of rice seedling, Nilaparvata lugens larvae released; conditions: active ingredient 500 ppm, 5 ml drench at foot of rice seedling, 7 days at 25°C, then third-fourth instar larvae kept 6 days; for mortality at 500 ppm: Nilaparvata lugens, soil, 144 h, read-out: control value
[2] = tested on: Adoxophyes orana fasciata; test: Test Example 7: spray on apple tree, Adoxophyes orana fasciata larvae released; conditions: in Malus domestica, 168 h, active ingredient 500 ppm, 20 mL/cup sprayed on apple tree, first-instar larvae, after 7 days, read-out: death rate
Method: The formulations of Compounds of Present Invention 1-1 to 1-6, 1-10, 1-21, 1-28, 1-31 to 1-34, 1-39 and 1-42 as obtained in Formulation Example 5 were diluted with water, so as to have a concentration of the active ingredient of 500 ppm, to prepare a test spray solution.
On the other hand, an apple tree was planted in a plastic cup, and grown until the seventh-eighth true leaf was spread. To the apple tree was sprayed, at a rate of 20 mL/cup, the test drug solution. After the drug solution was dried, 60 first-instar larvae of Adoxophyes orana fasciata were released, and covered with a plastic cup the bottom of which was cut off and on which a filter paper was put, with the plastic cup cover placed upside-down. After 7 days, the number of dead insects was counted, and the death rate was calculated according to the following equation. Death rate (%) = (Number of dead insects/Number of tested insects) × 100 [formula]

Culex pipiens pallens = test: Test Example 10: Culex pipiens pallens larvae in treated water; conditions: 24 h, read-out: death rate
Source text: 20 last-instar larvae of Culex pipiens pallens were released into the solution. One day later, the life and death of the Culex pipiens pallens was examined, and the number of dead insects was counted to calculate the death rate. Death rate (%) = (Number of dead insects/Number of tested insects) × 100 [formula]

Aphis gossypii [3] = test: Test Example 2: drench at foot of cucumber seedling, later inoculated with Aphis gossypii; conditions: soil, 144 h, active ingredient 500 ppm, 5 ml drench at foot of cucumber seedling, 7 days at 25°C, then inoculated and kept 6 days, read-out: control value
Method: (§1) On the other hand, a cucumber seedling (the second true leaf stage) planted in a plastic cup was drenched at its foot with 5 ml of the test drug solution, and kept in a greenhouse at 25°C for 7 days. On the cucumber leaf surface was inoculated about 30 Aphis gossypii (whole stage), and further kept in the greenhouse for 6 days, then the number of surviving Aphis gossypii parasitic on the leaves of the cucumber was examined, and the control value was calculated according to the following equation: Control value (%) = {1-(Cb×Tai)/(Cai×Tb)} × 100 [formula] wherein the symbols represent as follows: • Cb: the number of insects in a non-treated section before treatment • Cai: the number of surviving parasitic insects in a non-treated section on observation • Tb: the number of insects in a treated section before treatment • Tai: the number of surviving parasitic insects in a treated section on observation • wherein the non-treated section refers to a section where the test drug solution prepared by diluting the formulation obtained as in Formulation Example 5 but not containing the compound of the present invention with the same amount of water as in the treated section was sprayed.

[4] = tested on: Haemaphysalis longicornis; test: Test Example 11: coated screw tube contact test, Haemaphysalis longicornis ticks; conditions: 48 h, 2 mg compound in 0.2 mL acetone coated on inner wall of screw tube, unfed nymphal ticks, after 2 days, read-out: death rate
Method: 2 mg of each of Compounds of Present Invention 1-5, 1-24, 1-32 to 1-33, and 1-36 was weighed in a screw tube (Maruemu No. 5; 27 × 55 mm), 0.2 mL of acetone was added thereto, and the screw tube was sealed with a cap to dissolve the compound. The screw tube was rotated and inverted to uniformly coat the drug solution onto the whole inner wall of the tube. After removing the cap, the solution was air-dried for about 2 hours, then unfed nymphal ticks, Haemaphysalis longicornis (5 ticks/group) were released, and the tube was sealed with the cap. After 2 days, the number of dead insects was counted, and the death rate was calculated according to the following equation. Death rate (%) = (Number of dead insects/Number of tested insects) × 100 [formula]

Plutella xylostella = test: Test Example 6: spray on cabbage, Plutella xylostella larvae released; conditions: 120 h, read-out: death rate
Method: On the other hand, on cabbage at the third leaf stage planted in a polyethylene cup was sprayed, at a rate 20 mL/cup, the test drug solution. After the drug solution was dried, the foliage part was cut off, and then placed in a 50 mL volume cup. Five second instar larvae of Plutella xylostella were released into the cup, and the cup was sealed with a lid. After the cup was kept at 25°C for 5 days, the number of dead insects was counted. The death rate was calculated according to the following equation. Death rate (%) = (Number of dead insects/Number of tested insects) × 100 [formula]

Aphis gossypii [5] = test: Test Example 1: foliar spray on cucumber seedling inoculated with Aphis gossypii; conditions: 144 h, active ingredient 500 ppm, 20 ml sprayed on cucumber seedling, six days after spraying, read-out: control value
Method: as §1, with “hand, on” for “hand,”, “first” for “second”, “inoculated” for “drenched at its foot”, “with” for “with 5 ml of the test drug solution, and kept in a greenhouse at 25°C for 7 days. On the cucumber leaf surface was inoculated”, “left for a day. 20 ml of” for “further kept in”, “test drug solution was sprayed on the seedling. Six days after spraying,” for “greenhouse for 6 days, then”

Musca domestica = test: whole plant or invertebrate; conditions: 24 h, read-out: death rate
Method: The formulations of Compounds of Present Invention 1-1, 1-40 and 1-42 as obtained in Formulation Example 5 were diluted with water, so as to have a concentration of the active ingredient of 500 ppm, to prepare a test drug solution.
A filter paper having a diameter of 5.5 cm was spread on the bottom of a polyethylene cup having the same diameter and 0.7 ml of the test drug solution was added dropwise onto the filter paper, and 30 mg of sucrose was uniformly placed as bait. Into the polyethylene cup, 10 female imagoes of Musca domestica were released, and the cup was sealed with a lid. After 24 hours, the life and death of Musca domestica was examined, the number of dead insects was counted, and the death rate was calculated according to the following equation. Death rate (%) = (Number of dead insects/Number of tested insects) × 100 [formula]

Nilaparvata lugens [6] = test: Test Example 3: spray on rice seedling, Nilaparvata lugens larvae released; conditions: 144 h, active ingredient 500 ppm, 10 ml sprayed on rice seedling, third-fourth instar larvae, after 6 days, read-out: control value
[7] = active ingredient concentration 3.5 ppm in ion-exchanged water, last-instar larvae, one day later
[8] = active ingredient 500 ppm, 20 mL/cup sprayed on cabbage, second instar larvae, 25°C for 5 days

Work on `CCS(=O)(=O)c1cc(C(=O)N2CCCC2)cnc1-c1nc2cc(C(F)(F)F)cnc2n1C` [Compound of Present Invention 1-8, 5-ethylsulfonyl-6-(3-methyl-6-trifluoromethyl-3H-imidazo[4,5-b]pyridin-2-yl)nicotinoylpyrrolidine] yielded a control value (Nilaparvata lugens [1]) of no less than 90%.
In the case of `CCS(=O)(=O)c1cc(C(=O)OCC(F)(F)F)cnc1-c1nc2cc(C(F)(F)F)cnc2n1C` [Compound of Present Invention 1-28], the mortality at 500 ppm [2] is reported as no less than 90% and the mortality at 3.5 ppm (Culex pipiens pallens; [7]) is reported as no less than 95%.
With `CCS(=O)(=O)c1cc(C(=O)N2CCOCC2)cnc1-c1nc2cc(C(F)(F)F)cnc2n1C` [Compound of Present Invention 1-13] the mortality at 500 ppm (Aphis gossypii [3]) was no less than 90% and the mortality at 3.5 ppm (Culex pipiens pallens; [7]) was no less than 95%.
Work on `CCS(=O)(=O)c1cc(C(=O)NC2CSC2)cnc1-c1nc2cc(C(F)(F)F)cnc2n1C` [Compound of Present Invention 1-36] yielded a mortality at 2 mg/tube, 2 mg/tube [4] of 100%.
`CCS(=O)(=O)c1cc(C(=O)OC(C)(C)C)cnc1-c1nc2cc(C(F)(F)F)cnc2n1C` [Compound of Present Invention 1-5, tert-butyl 5-ethylsulfonyl-6-(3-methyl-6-trifluoromethyl-3H-imidazo[4,5-b]pyridin-2-yl)nicotinate] showed a mortality at 2 mg/tube, 2 mg/tube [4] of 100%.
For `CCS(=O)(=O)c1cc(C(N)=O)cnc1-c1nc2cc([S+]([O-])C(F)(F)F)ccc2o1` (centres unmarked) [Compound of Present Invention 1-41], the mortality at 500 ppm (Plutella xylostella; [8]) was no less than 80% and the mortality at 3.5 ppm (Culex pipiens pallens; [7]) was no less than 95%.
With `CCCOC(=O)c1cnc(-c2nc3cc(C(F)(F)F)cnc3n2C)c(S(=O)(=O)CC)c1` [Compound of Present Invention 1-4, propyl 5-ethylsulfonyl-6-(3-methyl-6-trifluoromethyl-3H-imidazo[4,5-b]pyridin-2-yl)nicotinate] the mortality at 500 ppm (Plutella xylostella; [8]) was no less than 80%.
`CCS(=O)(=O)c1cc(C(=O)OCCOC)cnc1-c1nc2cc(C(F)(F)F)cnc2n1C` [Compound of Present Invention 1-33] showed a mortality at 2 mg/tube, 2 mg/tube [4] of 100%.
`CCS(=O)(=O)c1cc(C(=O)Nc2ccc(Cl)cc2)cnc1-c1nc2cc(C(F)(F)F)cnc2n1C` [Compound of Present Invention 1-20] showed a mortality at 3.5 ppm (Culex pipiens pallens; [7]) of no less than 95%.
Work on `CCS(=O)(=O)c1cc(C(C)=O)cnc1-c1nc2cc(C(F)(F)F)cnc2n1C` [Compound of Present Invention 1-21, 2-(5-acetyl-3-ethylsulfonylpyridin-2-yl)-3-methyl-6-trifluo romethyl-3H-imidazo[4,5-b] pyridine] yielded a mortality at 500 ppm (Aphis gossypii [5]) of no less than 90%, a mortality at 500 ppm (Aphis gossypii [3]) of no less than 90% and a mortality at 500 ppm [2] of no less than 90%.
For `CCS(=O)(=O)c1cc(C(=O)OC)cnc1-c1nc2cc(C(F)(F)F)cnc2n1C` [Compound of Present Invention 1-1, methyl 5-ethylsulfonyl-6-(3-methyl-6-trifluoromethyl-3H-imidazo[4,5-b]pyridin-2-yl)nicotinate], the mortality at 500 ppm (Plutella xylostella; [8]) was no less than 80%, the mortality at 500 ppm (Musca domestica) was 100% and the mortality at 3.5 ppm (Culex pipiens pallens; [7]) was no less than 95%.
`CCS(=O)(=O)c1cc(C(=O)NC2CC2)cnc1-c1nc2cc(C(F)(F)F)cnc2n1C` [Compound of Present Invention 1-24] gave a mortality at 2 mg/tube, 2 mg/tube [4] of 100%.
Work on `CCS(=O)(=O)c1cc(C(=O)NN(C)C)cnc1-c1nc2cc(C(F)(F)F)cnc2n1C` [Compound of Present Invention 1-7, 5-ethylsulfonyl-N',N'-dimethyl-6-(3-methyl-6-trifluoromethy 1-3H-imidazo[4,5-b]pyridin-2-yl)nicotinic acid hydrazide] yielded a mortality at 500 ppm (Plutella xylostella) of no less than 80% and a mortality at 3.5 ppm (Culex pipiens pallens) of no less than 95%.
`CCS(=O)(=O)c1cc(C(=O)OCc2ccccc2)cnc1-c1nc2cc(C(F)(F)F)cnc2n1C` [Compound of Present Invention 1-32] was tested, and the mortality at 3.5 ppm (Culex pipiens pallens; [7]) was no less than 95% and the mortality at 2 mg/tube, 2 mg/tube [4] was 100%.
With `CCOC(=O)c1cnc(-c2nc3cc([S+]([O-])C(F)(F)F)ccc3o2)c(S(=O)(=O)CC)c1` (centres unmarked) [Compound of Present Invention 1-39] the mortality at 500 ppm (Plutella xylostella; [8]) was no less than 80%, the mortality at 500 ppm [2] was no less than 90% and the mortality at 3.5 ppm (Culex pipiens pallens; [7]) was no less than 95%.
For `CCS(=O)(=O)c1cc(C(=O)N(C)OC)cnc1-c1nc2cc(C(F)(F)F)cnc2n1C` [Compound of Present Invention 1-18, 5-ethylsulfonyl-N-methoxy-N-methyl-6-(3-methyl-6-trifluoromethyl-3H-imidazo[4,5-b]pyridin-2-yl)nicotinamide], the mortality at 500 ppm (Aphis gossypii [5]) was no less than 90%, the mortality at 500 ppm (Aphis gossypii [3]) was no less than 90% and the mortality at 500 ppm (Nilaparvata lugens [6]) was no less than 90%.
`CCS(=O)(=O)c1cc(C(=O)N(C)C)cnc1-c1nc2cc([S+]([O-])C(F)(F)F)ccc2o1` (centres unmarked) [Compound of Present Invention 1-42] showed a mortality at 500 ppm (Aphis gossypii [3]) of no less than 90%, a mortality at 500 ppm (Nilaparvata lugens [6]) of no less than 90% and a mortality at 500 ppm (Nilaparvata lugens [1]) of no less than 90%. For the same compound, the mortality at 500 ppm (Plutella xylostella; [8]) was no less than 80%, the mortality at 500 ppm [2] was no less than 90% and the mortality at 500 ppm (Musca domestica) was 100%.
`CCS(=O)(=O)c1cc(C(=O)NC(C)(C)C)cnc1-c1nc2cc(C(F)(F)F)cnc2n1C` [Compound of Present Invention 1-10, N-tert-butyl-5-ethylsulfonyl-6-(3-methyl-6-trifluoromethyl-3H-imidazo[4,5-b]pyridin-2-yl)nicotinamide] was tested, and the mortality at 500 ppm (Nilaparvata lugens [1]) was no less than 90%, the mortality at 500 ppm (Plutella xylostella; [8]) was no less than 80% and the mortality at 500 ppm [2] was no less than 90%.
`CCS(=O)(=O)c1cc(C(=O)N(C)C)cnc1-c1nc2cc(C(F)(F)F)cnc2n1C` [Compound of Present Invention 1-6, 5-ethylsulfonyl-N,N-dimethyl-6-(3-methyl-6-trifluoromethyl-3H-imidazo[4,5-b]pyridin-2-yl)nicotinamide] was tested, and the mortality at 500 ppm (Nilaparvata lugens [1]) was no less than 90%, the mortality at 500 ppm (Plutella xylostella; [8]) was no less than 80% and the mortality at 3.5 ppm (Culex pipiens pallens; [7]) was no less than 95%.
